Experimental data published in patent publication US8299111B2, “Compounds which modulate the CB2 receptor” (Boehringer Ingelheim International GmbH, priority 2006, dated 2012).

biological target: T1, human CB2R (Homo sapiens, UniProt P34972); assay: CB2R mediated modulation of cAMP synthesis; type: cell-based; settings: found through the use of the above described assays (binding and cAMP); CHO cells expressing human CB2R, forskolin-stimulated cAMP
T1 construct: host or cells: CHO cells
Summary of the method: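 CHO cells expressing human CB2R were treated for 30 min at 37 °C with compound in buffer containing 1 mM IBMX, 0.25% BSA and 10 uM forskolin. cAMP was measured after lysis. EC50 is the concentration giving 50% inhibition of forskolin-stimulated cAMP, scaled to the level set by 1 uM CP55940, fitted by four-parameter logistic.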

T1 sequence (P34972 whole entry): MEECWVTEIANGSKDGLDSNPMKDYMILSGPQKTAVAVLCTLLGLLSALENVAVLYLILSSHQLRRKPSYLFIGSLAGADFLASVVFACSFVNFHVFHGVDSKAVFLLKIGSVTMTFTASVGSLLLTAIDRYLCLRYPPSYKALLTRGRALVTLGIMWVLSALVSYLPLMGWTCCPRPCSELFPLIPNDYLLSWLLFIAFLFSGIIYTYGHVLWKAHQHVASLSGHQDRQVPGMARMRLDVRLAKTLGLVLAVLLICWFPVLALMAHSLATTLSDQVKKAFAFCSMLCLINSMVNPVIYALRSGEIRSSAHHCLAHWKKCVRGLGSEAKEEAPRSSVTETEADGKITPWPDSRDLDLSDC

SMILES | agonistic activity
CC(C)(C(=O)Nc1nc2ccccc2o1)S(=O)(=O)c1ccc(S(C)(=O)=O)cc1 [N-1,3-benzoxazol-2-yl-2-methyl-2-{[4-(methylsulfonyl)phenyl]sulfonyl}propanamide] | agonistic activity
CC(C)(C)c1cc(NC(=O)C(C)(C)S(=O)(=O)c2ccc(Cl)cc2Cl)no1 [N-(5-tert-Butyl-isoxazol-3-yl)-2-(2,4-dichloro-benzenesulfonyl)-2-methyl-propionamide] | agonistic activity
CC(C)(C(=O)Nc1nc(-c2ccccc2)co1)S(=O)(=O)c1ccccc1 [2-Benzenesulfonyl-2-methyl-N-(4-phenyl-oxazol-2-yl)-propionamide] | agonistic activity
CC(C)c1ccc(S(=O)(=O)C(C)(C)C(=O)Nc2cc(C(C)(C)C)on2)cc1 [N-(5-tert-Butyl-isoxazol-3-yl)-2-(4-isopropyl-benzenesulfonyl)-2-methyl-propionamide] | agonistic activity
CC(C)(C)c1cc(NC(=O)C(C)(C)S(=O)(=O)c2cccc(C(F)(F)F)c2)no1 [N-(5-tert-Butyl-isoxazol-3-yl)-2-methyl-2-(3-trifluoromethyl-benzenesulfonyl)-propionamide] | agonistic activity
CC(C)(C(=O)Nc1ccc(C(F)(F)F)cn1)S(=O)(=O)c1ccc(N2CCOCC2)nc1 [2-Methyl-2-(6-morpholin-4-yl-pyridine-3-sulfonyl)-N-(5-trifluoromethyl-pyridin-2-yl)-propionamide] | agonistic activity
CC(C)(C(=O)Nc1cccc(C(F)(F)F)c1)S(=O)(=O)c1ccc(S(C)(=O)=O)cc1 [2-methyl-2-{[4-(methylsulfonyl)phenyl]sulfonyl}-N-[3-(trifluoromethyl)phenyl]propanamide] | agonistic activity
O=C(Nc1ccc(C(F)(F)F)cn1)C1(S(=O)(=O)c2ccc(C(F)(F)F)cc2)CC1 [1-(4-Trifluoromethyl-benzenesulfonyl)-cyclopropanecarboxylic acid (5-trifluoromethyl-pyridin-2-yl)-amide] | agonistic activity
CC(C)(C(=O)Nc1nc2c(F)cccc2s1)S(=O)(=O)c1ccc(Cl)cc1 [2-[(4-chlorophenyl)sulfonyl]-N-(4-fluoro-1,3-benzothiazol-2-yl)-2-methylpropanamide] | agonistic activity
CCC(C)c1cc(NC(=O)C(C)(C)S(=O)(=O)c2ccc(Cl)cc2)n(C)n1 (centres unmarked) [N-(5-sec-Butyl-2-methyl-2H-pyrazol-3-yl)-2-(4-chloro-benzenesulfonyl)-2-methyl-propionamide] | agonistic activity
Cc1nc(NC(=O)C2(S(=O)(=O)c3ccc(C(F)(F)F)cc3)CCOCC2)sc1C(C)(C)C [4-(4-Trifluoromethyl-benzenesulfonyl)-tetrahydro-pyran-4-carboxylic acid (5-tert-butyl-4-methyl-thiazol-2-yl)-amide] | agonistic activity
CC(C)(C(=O)Nc1nc(C(F)(F)F)cs1)S(=O)(=O)c1ccc(Cl)cc1 [2-(4-Chloro-benzenesulfonyl)-2-methyl-N-(4-trifluoromethyl-thiazol-2-yl)-propionamide] | agonistic activity
CC(C)(C(=O)Nc1cnc2ccccc2c1)S(=O)(=O)c1ccc(C(F)(F)F)nc1 [2-methyl-N-quinolin-3-yl-2-{[6-(trifluoromethyl)pyridin-3-yl]sulfonyl}propanamide] | agonistic activity
CC(C)(C(=O)Nc1cnc2ccccc2c1)S(=O)(=O)c1ccc(F)cc1F [2-(2,4-Difluoro-benzenesulfonyl)-2-methyl-N-quinolin-3-yl-propionamide] | agonistic activity
CC(C)(C)Cc1cc(NC(=O)C(C)(C)S(=O)(=O)c2ccc(Cl)cc2F)on1 [2-[(4-chloro-2-fluorophenyl)sulfonyl]-N-[3-(2,2-dimethylpropyl)isoxazol-5-yl]-2-methylpropanamide] | agonistic activity
Cc1ccc(S(=O)(=O)C(C)(C)C(=O)Nc2cc(C(C)(C)C)nn2C)cc1 [N-(5-tert-Butyl-2-methyl-2H-pyrazol-3-yl)-2-methyl-2-(toluene-4-sulfonyl)-propionamide] | agonistic activity
CCC(C)c1cc(NC(=O)C(C)(C)S(=O)(=O)c2ccc(Cl)cc2)on1 (centres unmarked) [N-(3-sec-Butyl-isoxazol-5-yl)-2-(4-chloro-benzenesulfonyl)-2-methyl-propionamide] | agonistic activity
Cn1nc(-c2ccccc2)cc1NC(=O)C(C)(C)S(=O)(=O)c1ccccc1 [2-Benzenesulfonyl-2-methyl-N-(2-methyl-5-phenyl-2H-pyrazol-3-yl)-propionamide] | agonistic activity
Cc1nc(NC(=O)C(C)(C)S(=O)(=O)c2ccc(Cl)c(Cl)c2)sc1C(C)(C)C [N-(5-tert-Butyl-4-methyl-thiazol-2-yl)-2-(3,4-dichloro-benzenesulfonyl)-2-methyl-propionamide] | agonistic activity

Now from value to compound:

agonistic activity | SMILES
agonistic activity | Cc1ccnc(NC(=O)C(C)(C)S(=O)(=O)c2ccc(Cl)cc2)c1 [2-(4-Chloro-benzenesulfonyl)-2-methyl-N-(4-methyl-pyridin-2-yl)-propionamide]
agonistic activity | CCCc1cc(NC(=O)C(C)(C)S(=O)(=O)c2ccc(S(C)(=O)=O)cc2)on1 [2-methyl-2-{[4-(methylsulfonyl)phenyl]sulfonyl}-N-(3-propylisoxazol-5-yl)propanamide]
agonistic activity | CC(C)(C)c1csc(NC(=O)C(C)(C)S(=O)(=O)c2ccc(C#N)cc2F)n1 [N-(4-tert-Butyl-thiazol-2-yl)-2-(4-cyano-2-fluoro-benzenesulfonyl)-2-methyl-propionamide]
agonistic activity | CC(C)(C)c1cccc(NC(=O)C(C)(C)S(=O)(=O)c2ccc(Cl)cc2F)c1 [N-(3-tert-butylphenyl)-2-[(4-chloro-2-fluorophenyl)sulfonyl]-2-methylpropanamide]
agonistic activity | COc1ccc(S(=O)(=O)C(C)(C)C(=O)Nc2nc(-c3ccc(Cl)cc3)cs2)cc1 [N-[4-(4-Chloro-phenyl)-thiazol-2-yl]-2-(4-methoxy-benzenesulfonyl)-2-methyl-propionamide]
agonistic activity | CC(C)(C)c1cc(NC(=O)C(C)(C)S(=O)(=O)c2ccc(Cl)cc2)ccn1 [N-(2-tert-butylpyridin-4-yl)-2-[(4-chlorophenyl)sulfonyl]-2-methylpropanamide]
agonistic activity | CC(C)(C(=O)Nc1cccc(C(F)(F)F)n1)S(=O)(=O)c1ccc(Br)cc1 [2-(4-Bromo-benzenesulfonyl)-2-methyl-N-(6-trifluoromethyl-pyridin-2-yl)-propionamide]
agonistic activity | CC(C)(C(=O)Nc1cccc(C(F)(F)F)c1)S(=O)(=O)c1ccc(Cl)cc1F [2-[(4-chloro-2-fluorophenyl)sulfonyl]-2-methyl-N-[3-(trifluoromethyl)phenyl]propanamide]
agonistic activity | CC(C)(C)c1cc(NC(=O)C(C)(C)S(=O)(=O)c2cccc(OC(F)(F)F)c2)no1 [N-(5-tert-Butyl-isoxazol-3-yl)-2-methyl-2-(3-trifluoromethoxy-benzenesulfonyl)-propionamide]
agonistic activity | CCCc1cc(NC(=O)C(C)(C)S(=O)(=O)c2ccc(F)cc2F)on1 [2-[(2,4-difluorophenyl)sulfonyl]-2-methyl-N-(3-propylisoxazol-5-yl)propanamide]
agonistic activity | CC(C)(C(=O)Nc1nc(C2CC2)cs1)S(=O)(=O)c1ccc(Cl)cc1F [2-[(4-chloro-2-fluorophenyl)sulfonyl]-N-(4-cyclopropyl-1,3-thiazol-2-yl)-2-methylpropanamide]
agonistic activity | CC(C)(C(=O)Nc1cccc(C(F)(F)F)n1)S(=O)(=O)c1ccc(C(F)(F)F)nc1 [2-methyl-N-[6-(trifluoromethyl)pyridin-2-yl]-2-{[6-(trifluoromethyl)pyridin-3-yl]sulfonyl}propanamide]
agonistic activity | Cn1nc(C(C)(C)C)cc1NC(=O)C1(S(=O)(=O)c2ccc(C(F)(F)F)cc2)CC1 [1-(4-Trifluoromethyl-benzenesulfonyl)-cyclopropanecarboxylic acid (5-tert-butyl-2-methyl-2H-pyrazol-3-yl)-amide]
agonistic activity | CC(C)(C(=O)Nc1cccc(C(F)(F)F)n1)S(=O)(=O)c1ccc(N2CCC2)nc1 [2-(6-Azetidin-1-yl-pyridine-3-sulfonyl)-2-methyl-N-(6-trifluoromethyl-pyridin-2-yl)-propionamide]
agonistic activity | CC(C)(C(=O)Nc1nc2ccccc2s1)S(=O)(=O)c1ccc(C(F)(F)F)nc1 [N-1,3-benzothiazol-2-yl-2-methyl-2-{[6-(trifluoromethyl)pyridin-3-yl]sulfonyl}propanamide]
agonistic activity | Cc1ccc(S(=O)(=O)C(C)(C)C(=O)Nc2nc(-c3ccc(Cl)cc3)cs2)cc1 [N-[4-(4-Chloro-phenyl)-thiazol-2-yl]-2-methyl-2-(toluene-4-sulfonyl)-propionamide]
agonistic activity | Cc1ccc(S(=O)(=O)C(C)(C)C(=O)Nc2ccc(C(F)(F)F)cn2)cc1 [2-Methyl-2-(toluene-4-sulfonyl)-N-(5-trifluoromethyl-pyridin-2-yl)-propionamide]
agonistic activity | Cn1nc(C(C)(C)C)cc1NC(=O)C(C)(C)S(=O)(=O)c1ccccc1F [N-(5-tert-Butyl-2-methyl-2H-pyrazol-3-yl)-2-(2-fluoro-benzenesulfonyl)-2-methyl-propionamide]
agonistic activity | Cc1sc(NC(=O)C(C)(C)S(=O)(=O)c2ccc(Cl)cc2)nc1-c1ccc(F)cc1 [2-[(4-chlorophenyl)sulfonyl]-N-[4-(4-fluorophenyl)-5-methyl-1,3-thiazol-2-yl]-2-methylpropanamide]
